{
  "source": "patent US20100028366A1",
  "about": "“SYNERGISTIC EFFECT BETWEEN A […] AND ANOTHER OXIDATIVE INDUCING SYSTEM FOR TREATING TUMORS” (priority 2005, published 2010)",
  "key": {"[1]": {"tested_on": "W&Wlis cells", "assay": "Analysis of the type of death by flow cytometry (annexin V-FITC/propidium iodide)", "format": "cell-based, canine", "parameters": "Necrosis / Apoptosis: unit not given here", "conditions": "Without GO", "method": "The annexin V-FITC and propidium iodide assay was performed in parallel by flow cytometry. The pattern of death of the system was analyzed when adding 5 mEU/ml of glucose oxidase and the combined therapy (5 mEU/ml of GO and 500 μg/ml of linamarin) at 48 hours, followed by the control of untreated cells and of the cells incubated with 500 μg/ml of linamarin at 96 hours. Furthermore, another group of cells was subjected to the same conditions except 10 mM of N-acetyl cysteine (NAC) were added. The cells treated with the combined therapy were subsequently studied at 48 hours in the absence and presence of 100 μM of Z-VAD-fmk, followed by the control of treatment of the cells with UV in the same conditions. Finally, the cells treated with the combined therapy were shown at 48 hours in the absence and presence of 300 μM of 1,5-isoquinolinediol (DIQ), observing that the pattern of death is not modified when PARP-1 is inhibited (FIG. 4).\n10^5 W&Wlis cells were seeded in test tubes with a screw-on cap and flat side (Nunc). After 24 hours, different amounts of linamarin (50, 200 or 500 μg/ml) and glucose oxidase (5 mEU/ml) were added in the specified cases. In the appropriate assays, the medium was supplemented with N-acetyl cysteine (10 mM), 1,5-isoquinolinediol (300 μM) or Z-VAD-fmk (100 μM). […] They were centrifuged for 5 minutes at 1200 rpm and the cell precipitate was washed first with PBS and then with binding buffer (0.1 M Hepes/NaOH pH 7.4, 1.4 M NaCl and 25 mM CaCl2). The cells were again precipitated and resuspended in 100 μl of binding buffer supplemented with 5 μl of annexin V-FITC and 2.5 μg/ml of propidium iodide. The samples were incubated for 15 minutes in the dark. Data acquisition and analysis was carried out by means of a FACSCalibur flow cytometer (DB Biosciences) with the Cell Quest program."}, "[2]": {"tested_on": "W&Wlis tumors", "assay": "Xenotransplant model, W&Wlis tumors in immunodeficient mice", "format": "in vivo", "conditions": "intratumoral", "method": "In addition, a dose range for linamarin was evaluated in immunodeficient (nude) mice weighing 20 grams, inoculated with W&W tumor cells which stably expressed linamarase (W&Wlis). When the tumor reached an approximate size of 50 mm^3, the mice were treated with a daily dose of intratumoral linamarin at different concentrations (0.5; 0.35; 0.25 or 0.10 mg lin/g of weight of the animal).\nAnother approach carried out for the invention was the use of adenoviruses carrying the linamarase gene (adenolis) in W&W cell tumors induced in immunodeficient mice. 10^6 cells were subcutaneously inoculated in both flanks in mice (n=18). Part of the animals (n=8) received W&Wlis cells which already expressed linamarase, while others (n=10) were inoculated with W&W cells and only when the tumor had developed was it locally infected with adenolis. The animals inoculated with W&Wlis were treated daily with 0.25 mg lin and 0.1 EU GO/g in the largest tumor at the beginning of treatment (approximately 50 mm^3) (FIGS. 7G and 7H). The animals showing W&W tumors were treated with infection cycles with 10^9 IU of adenolis, followed by a two-day treatment with 0.25 mg lin and 0.1 EU GO/g (FIGS. 7I and 7J). The progression of the tumors was evaluated every two days.\nImmunodeficient (nude strain), athymic mice weighing approximately 20 grams and 2 months old were used. They were inoculated with 1-2×10^6 cells (W&W or W&Wlis) subcutaneously in both flanks of the mice by means of an injection with a volume of 50 μl in complete PBS (supplemented with calcium and magnesium ions) with 0.1% glucose. The size of the tumors (pi π/6×height×width×length) was measured with a calibrator.\nA large group of mice (n=8) were inoculated with 1-2×10^6 W&Wlis cells as previously described. When the tumors reached a mean size of 30-50 mm^3, the tumors of one flank were treated daily with 0.25 mg of linamarin and 0.1 EU of glucose oxidase/g of weight of the animal. When the untreated tumors reached a size of about 2000 mm^3 the animals were sacrificed and it was considered the end of treatment. The data was analyzed statistically by Student's t test, considering a level of significance of 5%."}, "[3]": {"conditions": "50 μg lin, 96 hours, NAC (10 mM)"}, "[4]": {"conditions": "200 μg lin, 96 hours, NAC (10 mM)"}, "[5]": {"conditions": "500 μg lin, 96 hours, NAC (10 mM)"}, "[6]": {"conditions": "Table 4, 50 μg lin, 72 hours, Z-VAD-fmk (100 μM)"}, "[7]": {"conditions": "Table 4, 50 μg lin, 72 hours, control (no Z-VAD-fmk)"}, "[8]": {"conditions": "Table 4, 200 μg lin, 72 hours, Z-VAD-fmk (100 μM)"}, "[9]": {"conditions": "Table 4, 200 μg lin, 72 hours, control (no Z-VAD-fmk)"}, "[10]": {"conditions": "Table 4, 500 μg lin, 72 hours, Z-VAD-fmk (100 μM)"}, "[11]": {"conditions": "Table 4, 500 μg lin, 72 hours, control (no Z-VAD-fmk)"}},
  "data": [
    {"smiles": "CC(C)(C#N)O[C@@H]1O[C@H](CO)[C@@H](O)[C@H](O)[C@H]1O", "note": "[lin, 2-hydroxy-isobutyronitrile-β-D-glucopyranoside]", "values": [
      {"measurement": "Apoptosis", "setting": "[1]; 50 μg lin, 48 h", "value": 3.71},
      {"measurement": "Necrosis", "setting": "[1]; 50 μg lin, 48 h", "value": 2.96},
      {"measurement": "Apoptosis", "setting": "[1]; 50 μg lin, 72 h", "value": 3.74},
      {"measurement": "Necrosis", "setting": "[1]; 50 μg lin, 72 h", "value": 5.28},
      {"measurement": "Apoptosis", "setting": "[1]; 50 μg lin, 96 h", "value": 20.83},
      {"measurement": "Necrosis", "setting": "[1]; 50 μg lin, 96 h", "value": 11.33},
      {"measurement": "Apoptosis", "setting": "[1]; [3]", "value": 6.44},
      {"measurement": "Necrosis", "setting": "[1]; [3]", "value": 51.89},
      {"measurement": "Apoptosis", "setting": "[1]; 200 μg lin, 48 h", "value": 3.84},
      {"measurement": "Necrosis", "setting": "[1]; 200 μg lin, 48 h", "value": 5.68},
      {"measurement": "Apoptosis", "setting": "[1]; 200 μg lin, 72 h", "value": 4.62},
      {"measurement": "Necrosis", "setting": "[1]; 200 μg lin, 72 h", "value": 9.34},
      {"measurement": "Apoptosis", "setting": "[1]; 200 μg lin, 96 h", "value": 14.31},
      {"measurement": "Necrosis", "setting": "[1]; 200 μg lin, 96 h", "value": 45.15},
      {"measurement": "Apoptosis", "setting": "[1]; [4]", "value": 21.58},
      {"measurement": "Necrosis", "setting": "[1]; [4]", "value": 29.18},
      {"measurement": "Apoptosis", "setting": "[1]; 500 μg lin, 48 h", "value": 5.17},
      {"measurement": "Necrosis", "setting": "[1]; 500 μg lin, 48 h", "value": 5.54},
      {"measurement": "Apoptosis", "setting": "[1]; 500 μg lin, 72 h", "value": 6.25},
      {"measurement": "Necrosis", "setting": "[1]; 500 μg lin, 72 h", "value": 6.91},
      {"measurement": "Apoptosis", "setting": "[1]; 500 μg lin, 96 h", "value": 18.99},
      {"measurement": "Necrosis", "setting": "[1]; 500 μg lin, 96 h", "value": 24.98},
      {"measurement": "Apoptosis", "setting": "[1]; [5]", "value": 18.53},
      {"measurement": "Necrosis", "setting": "[1]; [5]", "value": 19.89},
      {"measurement": "Apoptosis", "setting": "[1]; [6]", "value": 3.48},
      {"measurement": "Necrosis", "setting": "[1]; [6]", "value": 15.01},
      {"measurement": "Apoptosis", "setting": "[1]; [7]", "value": 1.36},
      {"measurement": "Necrosis", "setting": "[1]; [7]", "value": 14.72},
      {"measurement": "Apoptosis", "setting": "[1]; [8]", "value": 2.56},
      {"measurement": "Necrosis", "setting": "[1]; [8]", "value": 13.07},
      {"measurement": "Apoptosis", "setting": "[1]; [9]", "value": 3.30},
      {"measurement": "Necrosis", "setting": "[1]; [9]", "value": 30.13},
      {"measurement": "Apoptosis", "setting": "[1]; [10]", "value": 6.08},
      {"measurement": "Necrosis", "setting": "[1]; [10]", "value": 13.24},
      {"measurement": "Apoptosis", "setting": "[1]; [11]", "value": 9.02},
      {"measurement": "Necrosis", "setting": "[1]; [11]", "value": 18.04},
      {"measurement": "therapeutic effect on tumor growth", "setting": "[2]; 0.1 mg lin/g daily, n=4", "value": "no therapeutic effect"},
      {"measurement": "therapeutic effect on tumor growth", "setting": "[2]; 0.25 mg lin/g daily, after the tenth day of treatment, p=0.05, n=6", "value": "significant reduction of the growth of the treated tumor"},
      {"measurement": "death of animals", "setting": "[2]; 0.35 mg lin/g daily, fifth day of treatment", "value": "death of three of the four animals"},
      {"measurement": "death of animals", "setting": "[2]; 0.5 mg lin/g daily, between the fourth and fifth day of treatment", "value": "all the animals"}
    ]}
  ]
}
